According to US20230330180A1 (priority 2022, published 2023):

System: SARS-CoV-2 KOR-KCDC03-2020 strain
Test: Prophylactic immunofluorescent infection assay in Vero E6 cells
Format: cell-based
Details: Severe acute respiratory syndrome coronavirus 2, compound added one hour prior to virus, MOI 0.0125, 24 hours

CCC(CC)COC(=O)[C@H](C)N[P@](=O)(OC[C@H]1O[C@@](C#N)(c2ccc3c(N)ncnn23)[C@H](O)[C@@H]1O)Oc1ccccc1 [Remdesivir, remdesivir]
EC50: 12.9 µM
